From patent publication US9278922B2 (ABBVIE INC., priority 2009, dated 2016) come the findings set out here.

The test system of this experiment is HCV 1b-Con-1 replicon. The experiment is described as follows: HCV 1b-Con-1 replicon assay (luciferase reporter gene, HuH-7 cells). It counts as cell-based, Hepatitis C virus (HCV) genotype 1b-Con1. Particulars: Hepatitis C virus, Huh-7, luciferase reporter gene activity in the replicon, in the presence of 5% FBS. (A replicon is a self-replicating genome or part of one, used to study replication in cells.)

As usually defined, the EC50 is the midpoint of the concentration-response curve. Regarding `O=C(Nc1ccc(CN(Cc2ccc(NC(=O)[C@@H]3CCCN3C(=O)C(c3ccccc3)N3CC[C@@H](F)C3)cc2)c2ccc(F)cc2)cc1)[C@@H]1CCCN1C(=O)C(c1ccccc1)N1CC[C@@H](F)C1` (single isomer, unassigned) [Example 118], the EC50 lay in the range of 1 to 10 nM.
With `O=C(Nc1ccc(CN(Cc2ccc(NC(=O)[C@@H]3CCCN3C(=O)C(c3ccccc3)N3CC[C@H](F)C3)cc2)c2ccc(F)cc2)cc1)[C@@H]1CCCN1C(=O)C(c1ccccc1)N1CC[C@H](F)C1` (single isomer, unassigned) [Example 120], the EC50 was below 1 nM.
On to `O=C(Nc1ccc(CN(Cc2ccc(NC(=O)[C@@H]3CCCN3C(=O)C(c3ccccc3)N3CCCC3=O)cc2)c2ccc(F)cc2)cc1)[C@@H]1CCCN1C(=O)C(c1ccccc1)N1CCCC1=O` (single isomer, unassigned) [Example 129, (2S ,2′S)-N,N′-{[(4-fluorophenyl)imino]bis(methanediylbenzene-4,1-diyl)}bis{1-[(2-oxopyrrolidin-1-yl)(phenyl)acetyl]pyrrolidine-2-carboxamide}], for which the EC50 was in the range of 1 to 10 nM.
Consider `O=C(Nc1ccc(CN(Cc2ccc(NC(=O)[C@@H]3CCCN3C(=O)C(c3ccccc3)N3CCC(F)(F)CC3)cc2)c2ccc(F)cc2)cc1)[C@@H]1CCCN1C(=O)C(c1ccccc1)N1CCC(F)(F)CC1` (single isomer, unassigned) [Example 139], for which the EC50 lay within 1 to 10 nM.
As for `COC(=O)N[C@H](C(=O)N1CCC[C@H]1C(=O)Nc1ccc(CN(Cc2ccc(NC(=O)[C@@H]3CCCN3C(=O)[C@@H](NC(=O)OC)C(C)C)cc2)c2ccccc2)cc1)C(C)C` [Example 1], the figure is below 1 nM; as for `CN(C)[C@@H](C(=O)N1CCC[C@H]1C(=O)Nc1ccc(CN(Cc2ccc(NC(=O)[C@@H]3CCCN3C(=O)[C@@H](c3ccccc3)N(C)C)cc2)c2ccccc2)cc1)c1ccccc1` [Example 2], below 1 nM; as for `COC(=O)N[C@@H](C(=O)N1CCC[C@H]1C(=O)Nc1ccc(CN(Cc2ccc(NC(=O)[C@@H]3CCCN3C(=O)[C@H](NC(=O)OC)c3ccccc3)cc2)c2ccccc2)cc1)c1ccccc1` [Example 3], below 1 nM.
On to `O=C(Nc1ccc(CN(Cc2ccc(NC(=O)[C@@H]3CCCN3C(=O)OCc3ccccc3)cc2)c2ccccc2)cc1)C1CCCN1C(=O)OCc1ccccc1` (stereo partly drawn) [Example 4, (2S,2′S)-benzyl 2,2′-(4,4′-(phenylazanediyl)bis(methylene)bis(4,1-phenylene)bis(azanediyl))bis(oxomethylene)dipyrrolidine-1-carboxylate], for which the EC50 was 10 to 100 nM.
For `COC(=O)N[C@@H](C)C(=O)N1CCC[C@H]1C(=O)Nc1ccc(CN(Cc2ccc(NC(=O)[C@@H]3CCCN3C(=O)[C@H](C)NC(=O)OC)cc2)c2ccccc2)cc1` [Example 8, Dimethyl (2S,2′S)-1,1′-((2S,2′S)-2,2′-(4,4′-(phenylazanediyl)bis(methylene)bis(4,1-phenylene)bis(azanediyl))bis(oxomethylene)bis(pyrrolidine-2,1-diyl))bis(1-oxopropane-2,1-diyl)dicarbamate], the EC50 fell in the range of 1 to 10 nM.
Consider `CC[C@H](C)[C@H](NC(=O)OC)C(=O)N1CCC[C@H]1C(=O)Nc1ccc(CN(Cc2ccc(NC(=O)[C@@H]3CCCN3C(=O)[C@@H](NC(=O)OC)[C@@H](C)CC)cc2)c2ccccc2)cc1` [Example 9], for which the EC50 was below 1 nM.
Turning to `COC(=O)N[C@H](C(=O)N1CCC[C@H]1C(=O)Nc1ccc(CN(Cc2ccc(NC(=O)[C@@H]3CCCN3C(=O)[C@@H](c3ccccc3)N(C)C)cc2)c2ccccc2)cc1)C(C)(C)C` [Example 10, Methyl (S)-1-((S)-2-(4-(((4-((S)-1-((R)-2-(dimethylamino)-2-phenylacetyl)pyrrolidine-2-carboxamido)benzyl)(phenyl)amino)methyl)phenylcarbamoyl)pyrrolidin-1-yl)-3,3-dimethyl-1-oxobutan-2-ylcarbamate], the EC50 was below 1 nM.
Take `COC(=O)N[C@H](C(=O)N1CCC[C@H]1C(=O)Nc1ccc(CN(Cc2ccc(NC(=O)[C@@H]3CCCN3C(=O)[C@@H](NC(=O)OC)c3ccccc3)cc2)c2ccccc2)cc1)c1ccccc1` [Example 11, Dimethyl (1S,1′S)-2,2′-((2S,2′S)-2,2′-(4,4′-(phenylazanediyl)bis(methylene)bis(4,1-phenylene)bis(azanediyl))bis(oxomethylene)bis(pyrrolidine-2,1-diyl))bis(2-oxo-1-phenylethane-2,1-diyl)dicarbamate]: the EC50 is below 1 nM.
Then `CCN(CC)[C@@H](C(=O)N1CCC[C@H]1C(=O)Nc1ccc(CN(Cc2ccc(NC(=O)[C@@H]3CCCN3C(=O)[C@@H](NC(=O)OC)C(C)(C)C)cc2)c2ccccc2)cc1)c1ccccc1` [Example 12, Methyl (S)-1-((S)-2-(4-(((4-((S)-1-((R)-2-(diethylamino)-2-phenylacetyl)pyrrolidine-2-carboxamido)benzyl)(phenyl)amino)methyl)phenylcarbamoyl)pyrrolidin-1-yl)-3,3-dimethyl-1-oxobutan-2-ylcarbamate], with below 1 nM; and `COC(=O)N[C@H](C(=O)N1CCC[C@H]1C(=O)Nc1ccc(CN(Cc2ccc(NC(=O)[C@@H]3CCCN3C(=O)[C@@H](NC(=O)OC)C(C)(C)C)cc2)c2ccc(F)cc2)cc1)C(C)(C)C` [Example 13, Dimethyl (2S,2′S)-1,1′-((2S,2′S)-2,2′-(4,4′-(4-fluorophenylazanediyl)bis(methylene)bis(4,1-phenylene)bis(azanediyl))bis(oxomethylene)bis(pyrrolidine-2,1-diyl))bis(3,3-dimethyl-1-oxobutane-2,1-diyl)dicarbamate], with below 1 nM; and `COC(=O)N[C@H](C(=O)N1CCC[C@H]1C(=O)Nc1ccc(CN(Cc2ccc(NC(=O)[C@@H]3CCCN3C(=O)[C@@H](NC(=O)OC)C(C)C)cc2)c2ccc(F)cc2)cc1)C(C)C` [Example 14], with below 1 nM.
For the molecule `COC(=O)N[C@@H](C)C(=O)N1CCC[C@H]1C(=O)Nc1ccc(CN(Cc2ccc(NC(=O)[C@@H]3CCCN3C(=O)[C@H](C)NC(=O)OC)cc2)c2ccc(F)cc2)cc1` [Example 15], the EC50 was 1 to 10 nM.
`COC(=O)N[C@H](C)C(=O)N1CCC[C@H]1C(=O)Nc1ccc(CN(Cc2ccc(NC(=O)[C@@H]3CCCN3C(=O)[C@@H](C)NC(=O)OC)cc2)c2ccc(F)cc2)cc1` [Example 16]: the EC50 is 10 to 100 nM.
Regarding `COC(=O)N[C@H](C(=O)N1CCC[C@H]1c1nc2cc(CN(Cc3ccc4[nH]c([C@@H]5CCCN5C(=O)[C@@H](NC(=O)OC)C(C)C)nc4c3)c3ccccc3)ccc2[nH]1)C(C)C` [Example 17, Dimethyl (2S,2′S)-1,1′-((2S,2′S)-2,2′-(5,5′-(phenylazanediyl)bis(methylene)bis(1H-benzo[d]imidazole-5,2-diyl))bis(pyrrolidine-2,1-diyl))bis(3-methyl-1-oxobutane-2,1-diyl)dicarbamate], the EC50 is below 1 nM.
`CN(C)[C@@H](C(=O)N1CCC[C@H]1c1nc2cc(CN(Cc3ccc4[nH]c([C@@H]5CCCN5C(=O)[C@@H](c5ccccc5)N(C)C)nc4c3)c3ccccc3)ccc2[nH]1)c1ccccc1` [Example 18, (2R,2′R)-1,1′-((2S,2′S)-2,2′-(5,5′-(phenylazanediyl)bis(methylene)bis(1H-benzo[d]imidazole-5,2-diyl))bis(pyrrolidine-2,1-diyl))bis(2-(dimethylamino)-2-phenylethanone)]: the EC50 was below 1 nM.
As for `COC(=O)N[C@H](C(=O)N1CCC[C@H]1C(=O)Nc1ccc(CN(Cc2ccc(NC(=O)[C@@H]3CCCN3C(=O)[C@@H](NC(=O)OC)C(C)(C)C)cc2)c2nccs2)cc1)C(C)(C)C` [Example 19], the figure is 10 to 100 nM; as for `COC(=O)N[C@H](C(=O)N1CCC[C@H]1C(=O)Nc1ccc(CN(Cc2ccc3[nH]c([C@@H]4CCCN4C(=O)[C@@H](NC(=O)OC)C(C)C)nc3c2)c2ccccc2)cc1)C(C)C` [Example 20], below 1 nM.
Then `CCN(CC)[C@@H](C(=O)N1CCC[C@H]1C(=O)Nc1ccc(CN(Cc2ccc(NC(=O)[C@@H]3CCCN3C(=O)[C@@H](c3ccccc3)N(CC)CC)cc2)c2ccccc2)cc1)c1ccccc1` [Example 21, (R,2S,2′S)-N,N′-(4,4′-(phenylazanediyl)bis(methylene)bis(4,1-phenylene))bis(1-((R)-2-(diethylamino)-2-phenylacetyl)pyrrolidine-2-carboxamide)], with below 1 nM; and `COC(=O)N[C@H](C(=O)N1CCC[C@H]1C(=O)Nc1ccc(CN(Cc2ccc(NC(=O)[C@@H]3CCCN3C(=O)[C@@H](NC(=O)OC)C(C)C)cc2)C(C)C)cc1)C(C)C` [Example 24, dimethyl ([(1-methylethyl)imino]bis{methanediylbenzene-4,1-diylcarbamoyl(2S)pyrrolidine-2,1-diyl[(2S)-3-methyl-1-oxobutane-1,2-diyl]})biscarbamate], with 1 to 10 nM; and `COC(=O)N[C@H](C(=O)N1CCC[C@H]1C(=O)Nc1ccc(CN(Cc2ccc(NC(=O)[C@@H]3CCCN3C(=O)[C@@H](NC(=O)OC)[C@@H](C)O)cc2)c2ccccc2)cc1)[C@@H](C)O` [Example 25, dimethyl[(phenylimino)bis{methanediylbenzene-4,1-diylcarbamoyl(2S)pyrrolidine-2,1-diyl[(2S,3R)-3-hydroxy-1-oxobutane-1,2-diyl]}]biscarbamate], with 1 to 10 nM.
On to `COC(=O)N[C@@H](CO)C(=O)N1CCC[C@H]1C(=O)Nc1ccc(CN(Cc2ccc(NC(=O)[C@@H]3CCCN3C(=O)[C@H](CO)NC(=O)OC)cc2)c2ccccc2)cc1` [Example 26, dimethyl[(phenylimino)bis{methanediylbenzene-4,1-diylcarbamoyl(2S)pyrrolidine-2,1-diyl[(2S)-3-hydroxy-1-oxopropane-1,2-diyl]}]biscarbamate], for which the EC50 was in the range of 10 to 100 nM.
Consider `COC(=O)N[C@H](C(=O)N1CCC[C@H]1C(=O)Nc1ccc(CN(Cc2ccc(NC(=O)[C@@H]3CCCN3C(=O)[C@@H](NC(=O)OC)C(C)C)cc2)C2CCCC2)cc1)C(C)C` [Example 27, dimethyl[(cyclopentylimino)bis{methanediylbenzene-4,1-diylcarbamoyl(2S)pyrrolidine-2,1-diyl[(2S)-3-methyl-1-oxobutane-1,2-diyl]}]biscarbamate], for which the EC50 is 10 to 100 nM.
